Data set [1] relates to LPS-induced IL-8 release in d-U937 cells. Description: LPS-induced IL-8 release in d-U937 cells. The class given is cell-based. The note with it: Homo sapiens, dU937, read-out: LPS Induced Release of Cytokine in d-937 Cells IL-8 IC50. Summed up:
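PMA (100 ng/mL, 48–72 hr)-differentiated U937; cpd 2 hr pre-inc; LPS 0.1 μg/mL (E. coli O111:B4) 4 hr. Supernatant TNFα/IL-8 by sandwich ELISA. IL-8 inhibition per concentration vs vehicle; REC50 from curve fit.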

The subject of data set [2] is LPS-induced TNFα release in d-U937 cells. Description: LPS-induced TNFα release in d-U937 cells. It is filed as cell-based. The settings on record: Homo sapiens, dU937, relative to 10 μg/mL BIRB796, read-out: LPS Induced Release of Cytokine in d-937 Cells TNFα REC50. The method in brief:
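Read-out: TNFα and IL-8 released into supernatant, sandwich ELISA, expressed as inhibition versus vehicle at each dose and fitted to give REC50. Cells were PMA-differentiated U937 (100 ng/mL, 48–72 hr), compound-exposed 2 hr before a 4 hr LPS stimulus (0.1 μg/mL).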

Data set [3] deals with cSrc (Homo sapiens (Human), UniProt P12931). Put plainly: c-Src enzyme inhibition (FRET, Z-LYTE). The class given is biochemical. The method in brief: (§1)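 Z-LYTE FRET kinase assay: enzyme (3000 or 2000 ng/mL stock, respectively) preincubated 2 h at RT with compound (4–0.004 μg/mL stocks), then FRET peptide plus ATP (800 μM stock for c-Src, 60 μM for Syk) added for 1 h. Protease development 1 h; phosphorylation from coumarin/fluorescein emission ratio.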
cSrc, sequence (P12931 whole entry, looked up): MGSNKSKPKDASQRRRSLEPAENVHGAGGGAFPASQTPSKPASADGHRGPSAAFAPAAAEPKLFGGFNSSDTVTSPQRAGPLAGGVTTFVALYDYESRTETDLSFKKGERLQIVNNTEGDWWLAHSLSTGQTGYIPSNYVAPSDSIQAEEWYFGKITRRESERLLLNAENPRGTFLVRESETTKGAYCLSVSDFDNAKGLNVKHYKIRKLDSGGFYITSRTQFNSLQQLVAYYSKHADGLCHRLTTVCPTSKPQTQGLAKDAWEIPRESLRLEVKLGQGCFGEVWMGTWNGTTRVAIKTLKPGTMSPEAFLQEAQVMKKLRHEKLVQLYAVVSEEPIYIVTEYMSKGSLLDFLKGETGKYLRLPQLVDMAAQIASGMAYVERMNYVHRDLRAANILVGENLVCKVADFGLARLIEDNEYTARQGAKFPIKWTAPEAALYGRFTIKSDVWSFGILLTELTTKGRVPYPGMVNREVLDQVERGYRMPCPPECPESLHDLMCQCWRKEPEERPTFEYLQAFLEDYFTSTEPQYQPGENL

Data set [4] addresses Syk (Homo sapiens (Human), UniProt P43405). Put plainly: Syk enzyme inhibition (FRET, Z-LYTE). It is filed as biochemical. The method in brief:
as §1

Data set [5] deals with Poly I:C-induced ICAM-1 expression in BEAS2B cells. Description: Poly I:C-induced ICAM-1 expression in BEAS2B cells. The note with it: Homo sapiens, BEAS-2B, read-out: Poly IC induced ICAM1 in BEAS2B IC50. It is filed as cell-based. Summed up: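 BEAS2B human bronchial epithelial cells pre-incubated with compound for 2 hr, then transfected with 1 μg/mL poly I:C plus Oligofectamine. At 18 hr, surface ICAM-1 measured by cell-based ELISA (HRP, OD450–655). Signal corrected for cell number by crystal violet OD595.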

For data set [6], the system named is d-U937 cells. Put plainly: Cell viability: MTT assay. The note with it: 1 μg/mL. The class given is cell-based, human. The method in brief: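 Differentiated U937 cells were exposed to compound at 1 or 10 μg/mL either 4 h in 5% FCS RPMI1640 or 24 h in 10% FCS RPMI1640, then given MTT for 1 h, DMSO-solubilised and read at 550 nm. Percent viability loss versus 0.5% DMSO vehicle; apparent gains appear negative.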
On the technique in general: Tetrazolium dyes change colour on reduction, which living cells bring about.

Data set [7] deals with GSK3α (Homo sapiens (Human), UniProt P49840). Put plainly: GSK 3α enzyme inhibition (FRET, Z-LYTE). It is filed as biochemical. The method in brief: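 GSK3α (500 ng/mL stock) was preincubated 2 hr at RT with compound (4 to 0.004 μg/mL stocks), then FRET peptide (8 μM stock) and ATP (40 μM stock) added for 1 hr. Protease development for 1 hr cleaved unphosphorylated peptide; coumarin/fluorescein emission ratio reported phosphorylation.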
GSK3α, sequence (P49840 whole entry): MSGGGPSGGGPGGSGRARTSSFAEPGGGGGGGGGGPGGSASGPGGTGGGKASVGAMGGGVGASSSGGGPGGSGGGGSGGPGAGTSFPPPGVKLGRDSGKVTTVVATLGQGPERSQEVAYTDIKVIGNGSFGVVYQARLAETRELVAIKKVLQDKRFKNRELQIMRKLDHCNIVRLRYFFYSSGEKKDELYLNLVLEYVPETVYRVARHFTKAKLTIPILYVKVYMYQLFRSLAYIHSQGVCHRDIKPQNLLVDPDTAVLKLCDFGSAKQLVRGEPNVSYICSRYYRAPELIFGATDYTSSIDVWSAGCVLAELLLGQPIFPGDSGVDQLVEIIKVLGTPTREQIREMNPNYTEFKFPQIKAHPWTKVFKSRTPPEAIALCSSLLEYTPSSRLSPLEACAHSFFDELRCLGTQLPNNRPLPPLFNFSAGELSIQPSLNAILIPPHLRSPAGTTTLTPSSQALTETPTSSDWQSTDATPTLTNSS

Data set [8] deals with p38 MAPKα (Homo sapiens (Human), UniProt Q16539). Description: p38 MAPKα enzyme inhibition (FRET, Z-LYTE). The class given is biochemical.
p38 MAPKα, sequence (Q16539 whole entry): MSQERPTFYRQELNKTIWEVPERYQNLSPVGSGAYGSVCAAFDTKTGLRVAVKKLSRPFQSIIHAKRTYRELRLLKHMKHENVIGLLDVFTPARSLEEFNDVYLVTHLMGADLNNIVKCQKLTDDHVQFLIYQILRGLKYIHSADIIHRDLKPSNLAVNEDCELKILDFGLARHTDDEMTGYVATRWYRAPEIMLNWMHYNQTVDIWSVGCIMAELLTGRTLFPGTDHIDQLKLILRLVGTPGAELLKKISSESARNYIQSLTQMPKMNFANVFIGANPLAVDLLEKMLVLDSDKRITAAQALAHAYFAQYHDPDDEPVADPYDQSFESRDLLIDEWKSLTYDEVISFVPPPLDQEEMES

Here are results for eight compounds from US9249125B2, “Pyrazole derivatives as p38 MAP inhibitors” (RESPIVERT LIMITED, priority 2012, dated 2016).

As usually defined, the pIC50 is −log10 of the IC50, conventionally taken in molar units.

Structures are written as SMILES. pEC50, pIC50: −log10 of the molar value.

Consider `Cc1ccc(-n2nc(C(C)(C)C)cc2NC(=O)Nc2ccc(Oc3ccnc(Nc4ccc5c(c4)OCO5)n3)c3ccccc23)cc1` [Example 33, 1-(4-((2-(benzo[d][1,3]dioxol-5-ylamino)pyrimidin-4-yl)oxy)naphthalen-1-yl)-3-(3-(tert-butyl)-1-(p-tolyl)-1H-pyrazol-5-yl)urea], for which the negative-log IC50 (pIC50) in data set [1] was 8.48; in data set [3], 7.64; in data set [4] it was 6.17; in data set [5], 8.57; in data set [7], 5.29; in data set [8], 6.43. In data set [2], the pEC50 was 8.42. Also, the “MTT Assay Cell viability at time point in d-U937 cells 4 h” value in data set [6] was “−ve (−ve and +ve indicate that the value is below and above respectively, the no significant effect threshold, defined as 30% inhibition at 1 μg/mL at the time point indicated.)”. Besides, in data set [6], the “MTT Assay Cell viability at time point in d-U937 cells 24 h” value is “−ve (−ve and +ve indicate that the value is below and above respectively, the no significant effect threshold, defined as 30% inhibition at 1 μg/mL at the time point indicated.)”.
Take `Cc1ccc(-n2nc(C(C)(C)C)cc2NC(=O)Nc2ccc(Oc3ccnc(Nc4cccc5[nH]ccc45)n3)c3ccccc23)cc1` [Example 16]: the pIC50 in data set [1] is 8.59; in data set [3] it was 7.66; in data set [4] it was 7.19; in data set [5], 8.05; in data set [7], under 4.79; in data set [8], 7.00. Also, in data set [2], the pEC50 is 8.70. The “MTT Assay Cell viability at time point in d-U937 cells 4 h” value in data set [6] was “−ve (−ve and +ve indicate that the value is below and above respectively, the no significant effect threshold, defined as 30% inhibition at 1 μg/mL at the time point indicated.)”. The “MTT Assay Cell viability at time point in d-U937 cells 24 h” value in data set [6] was “−ve (−ve and +ve indicate that the value is below and above respectively, the no significant effect threshold, defined as 30% inhibition at 1 μg/mL at the time point indicated.)”.
On to `COc1ccc(-n2nc(C(C)C)cc2NC(=O)Nc2ccc(Oc3cc(Nc4ccc5[nH]ncc5c4)ncn3)c3ccccc23)cc1` [Example 39, 1-(4-((6-((1H-indazol-5-yl)amino)pyrimidin-4-yl)oxy)naphthalen-1-yl)-3-(3-isopropyl-1-(4-methoxyphenyl)-1H-pyrazol-5-yl)urea], for which the negative-log IC50 (pIC50) was 7.82 in data set [1]; 7.96 in data set [3]; 7.41 in data set [4]; 6.80 in data set [5]; under 4.80 in data set [7]; 8.00 in data set [8]. Also, the pEC50 in data set [2] is 8.24. The “MTT Assay Cell viability at time point in d-U937 cells 4 h” value in data set [6] was “−ve (−ve and +ve indicate that the value is below and above respectively, the no significant effect threshold, defined as 30% inhibition at 1 μg/mL at the time point indicated.)”. The “MTT Assay Cell viability at time point in d-U937 cells 24 h” value in data set [6] is “−ve (−ve and +ve indicate that the value is below and above respectively, the no significant effect threshold, defined as 30% inhibition at 1 μg/mL at the time point indicated.)”.
With `CC(C)(C)c1cc(NC(=O)Nc2ccc(Oc3ccnc(Nc4ccc5[nH]ncc5c4)c3)c3ccccc23)n(-c2ccc(OCCN3CCOCC3)cc2)n1` [Example 67], the pIC50 in data set [1] was 9.52; in data set [3], over 9.00; in data set [4], over 9.00; in data set [5], 8.60; in data set [7], 5.52; in data set [8] it was 8.30. Moreover, in data set [2], the pEC50 is 8.82. In addition, the “MTT Assay Cell viability at time point in d-U937 cells 4 h” value in data set [6] was “−ve (−ve and +ve indicate that the value is below and above respectively, the no significant effect threshold, defined as 30% inhibition at 1 μg/mL at the time point indicated.)”. For the same compound, the “MTT Assay Cell viability at time point in d-U937 cells 24 h” value in data set [6] is “−ve (−ve and +ve indicate that the value is below and above respectively, the no significant effect threshold, defined as 30% inhibition at 1 μg/mL at the time point indicated.)”.
As for `CC(C)(C)c1cc(NC(=O)Nc2ccc(Oc3ccnc(Nc4ccc5c(c4)OCO5)n3)c3ccccc23)n(-c2ccc(OCCN3CCOCC3)cc2)n1` [Example 65, 1-(4-((2-(benzo[d][1,3]dioxol-5-ylamino)pyrimidin-4-yl)oxy)naphthalen-1-yl)-3-(3-(tert-butyl)-1-(4-(2-morpholinoethoxy)phenyl)-1H-pyrazol-5-yl)urea], the pIC50 in data set [1] was 7.68; in data set [3], 7.64; in data set [4] it was 6.85; in data set [5], 8.17; in data set [7], 5.55; in data set [8], 6.62. Also, the pEC50 in data set [2] is 8.28. Further, the “MTT Assay Cell viability at time point in d-U937 cells 4 h” value in data set [6] was “−ve (−ve and +ve indicate that the value is below and above respectively, the no significant effect threshold, defined as 30% inhibition at 1 μg/mL at the time point indicated.)”. Further, the “MTT Assay Cell viability at time point in d-U937 cells 24 h” value in data set [6] was “−ve (−ve and +ve indicate that the value is below and above respectively, the no significant effect threshold, defined as 30% inhibition at 1 μg/mL at the time point indicated.)”.
With `Cc1ccc(-n2nc(C(C)(C)C)cc2NC(=O)Nc2ccc(Oc3ccnc(Nc4cccc5cn[nH]c45)n3)c3ccccc23)cc1` [Example 25], the negative-log IC50 (pIC50) was 8.77 in data set [1]; 7.34 in data set [3]; 6.12 in data set [4]; 7.85 in data set [5]; under 4.80 in data set [7]; 6.28 in data set [8]. Also, the pEC50 in data set [2] was 9.10. Also, in data set [6], the “MTT Assay Cell viability at time point in d-U937 cells 4 h” value is “−ve (−ve and +ve indicate that the value is below and above respectively, the no significant effect threshold, defined as 30% inhibition at 1 μg/mL at the time point indicated.)”. Besides, the “MTT Assay Cell viability at time point in d-U937 cells 24 h” value in data set [6] is “−ve (−ve and +ve indicate that the value is below and above respectively, the no significant effect threshold, defined as 30% inhibition at 1 μg/mL at the time point indicated.)”.
In the case of `Cc1ccc(-n2nc(C(C)(C)C)cc2NC(=O)Nc2ccc(Oc3ccnc(Nc4ccc5[nH]nc(C(=O)NCCN6CCOCC6)c5c4)n3)c3ccccc23)cc1` [Example 3, 5-((4-((4-(3-(3-(tert-Butyl)-1-(p-tolyl)-1H-pyrazol-5-yl)ureido)naphthalen-1-yl)oxy)pyrimidin-2-yl)amino)-N-(2-morpholinoethyl)-1H-indazole-3-carboxamide], the pIC50 is 7.46 in data set [1]; 8.22 in data set [3]; 7.02 in data set [4]; 8.17 in data set [5]; 5.63 in data set [7]; 7.72 in data set [8]. Further, in data set [2], the pEC50 was 8.28. The “MTT Assay Cell viability at time point in d-U937 cells 4 h” value in data set [6] was “−ve (−ve and +ve indicate that the value is below and above respectively, the no significant effect threshold, defined as 30% inhibition at 1 μg/mL at the time point indicated.)”. The “MTT Assay Cell viability at time point in d-U937 cells 24 h” value in data set [6] was “−ve (−ve and +ve indicate that the value is below and above respectively, the no significant effect threshold, defined as 30% inhibition at 1 μg/mL at the time point indicated.)”.
Turning to `CC(C)(C)c1cc(NC(=O)Nc2ccc(Oc3ccnc(Nc4ccc5[nH]ncc5c4)n3)c3ccccc23)n(-c2ccc(O)cc2)n1` [Example 7, 1-(4-((2-((1H-Indazol-5-yl)amino)pyrimidin-4-yl)oxy)naphthalen-1-yl)-3-(3-(tert-butyl)-1-(4-hydroxyphenyl)-1H-pyrazol-5-yl)urea], the pIC50 in data set [1] is 7.76; in data set [3], 8.00; in data set [4], 7.62; in data set [5], 7.79; in data set [7] it was under 5.80; in data set [8], 7.10. Further, in data set [2], the pEC50 is 8.21. Moreover, the “MTT Assay Cell viability at time point in d-U937 cells 4 h” value in data set [6] is “−ve (−ve and +ve indicate that the value is below and above respectively, the no significant effect threshold, defined as 30% inhibition at 1 μg/mL at the time point indicated.)”. In addition, the “MTT Assay Cell viability at time point in d-U937 cells 24 h” value in data set [6] is “−ve (−ve and +ve indicate that the value is below and above respectively, the no significant effect threshold, defined as 30% inhibition at 1 μg/mL at the time point indicated.)”.
